ChEMBL document CHEMBL1671801, “Melampomagnolide B: a new antileukemic sesquiterpene” (Bioorg Med Chem, 2011)
Active and inactive are the calls of the source.

Assays:
[1] = system: AML; assay: Cytotoxicity against human AML cells at 20 to 30 uM after 24 hrs using Annexin-V and 7-AAD staining by flow cytometry; format: functional, cell-based
[2] = system: AML; assay: Inhibition of NF-kappaB activity in human AML cells assessed as phosphorylation of NF-kappaB p65 subunit at Ser-536 at 15 uM by immunoblotting; format: cell-based
[3] = target: T1, Inhibitor of nuclear factor kappa-B kinase subunit beta (Homo sapiens) (UniProt O14920); assay: Binding affinity to IKK-beta activity in human AML cells after 4 hrs streptavidin beads pull-down assay; format: cell-based
T1 sequence (whole entry): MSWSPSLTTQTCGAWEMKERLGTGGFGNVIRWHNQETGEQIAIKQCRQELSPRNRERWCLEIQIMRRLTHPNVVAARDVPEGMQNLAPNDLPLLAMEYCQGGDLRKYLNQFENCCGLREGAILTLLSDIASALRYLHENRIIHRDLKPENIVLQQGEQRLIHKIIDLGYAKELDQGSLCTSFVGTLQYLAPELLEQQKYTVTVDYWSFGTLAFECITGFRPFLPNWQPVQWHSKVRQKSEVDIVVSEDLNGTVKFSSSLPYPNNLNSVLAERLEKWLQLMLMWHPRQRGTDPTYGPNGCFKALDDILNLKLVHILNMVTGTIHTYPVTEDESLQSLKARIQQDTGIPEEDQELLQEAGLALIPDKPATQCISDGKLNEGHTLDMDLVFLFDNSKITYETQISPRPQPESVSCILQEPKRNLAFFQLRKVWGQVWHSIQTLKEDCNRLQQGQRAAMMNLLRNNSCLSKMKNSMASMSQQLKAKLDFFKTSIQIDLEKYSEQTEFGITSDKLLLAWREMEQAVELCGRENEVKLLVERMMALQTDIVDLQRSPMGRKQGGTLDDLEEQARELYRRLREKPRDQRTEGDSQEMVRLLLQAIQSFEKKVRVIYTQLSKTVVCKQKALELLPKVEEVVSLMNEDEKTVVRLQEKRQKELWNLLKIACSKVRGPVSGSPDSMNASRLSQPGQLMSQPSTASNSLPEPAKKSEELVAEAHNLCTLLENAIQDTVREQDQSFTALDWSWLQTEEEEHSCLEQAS

[4] = system: AML; assay: Binding affinity to NF-kappaB p65 activity in human AML cells after 4 hrs streptavidin beads pull-down assay; format: cell-based
[5] = system: AML; assay: Cytotoxicity against human AML cells at 7.5 uM after 24 hrs using Annexin-V and 7-AAD staining by flow cytometry; format: functional, cell-based
[6] = system: AML; assay: Inhibition of NF-kappaB activity in human AML cells assessed as phosphorylation of NF-kappaB p65 subunit at Ser-536 at 7.5 uM by immunoblotting; format: cell-based

Measured: Activity

C=C1C(=O)O[C@@H]2[C@H]3O[C@]3(C)CC/C=C(\COC(=O)CCCCCCCCCCCNC(=O)CCCC[C@@H]3SC[C@@H]4NC(=O)N[C@@H]43)CC[C@@H]12
active: [1] | [2] | [3] | [4]

C=C1C(=O)O[C@@H]2[C@H]3O[C@]3(C)CC/C=C(\CO)CC[C@@H]12
active: [5] | [6]
